Data published in PubChem BioAssay AID2060601 (Molecular Pharmacology Branch, DTP, NCI, 2025).

System: 874868-142-R-J2-PDC complex spheroids, growth % test/control
Assay: Anticancer human tumor 874868-142-R-J2-PDC patient-derived head and neck squamous carcinoma cell line growth inhibition [CLK]
Conditions: for IC50: curve of first compound; for viability, T/C: stronger effect = lower value
From the text: A high-throughput screen of multi-cell type tumor spheroids was designed to identify active combinations of […] and targeted small molecules. Complex spheroids include a stromal component modeled by human endothelial cells (HUVEC) and fibroblasts modeled by human mesenchymal stem cells (MSCs). The concentration ranges selected for each drug and investigational agent were based upon clinically achievable concentrations if the clinical Cmax of the agent was known.
Compounds. The drugs and investigational agents: cirtuvivint (SM08502; NSC835563), CC-671 (NSC850746), vemurafenib (NSC761431), tapotoclax (NSC804041), sotorasib (NSC818433), adagrasib (NSC831453), MRTX-1133 (NSC836407), BAY2416964 (NSC825713), copanlisib (NSC816437), inavolisib (NSC800729), abemaciclib (NSC768073), osimertinib (NSC779217), entinostat (NSC756642), eltanexor (KPT-8602, NSC794443), venetoclax (NSC766270), ceralasertib (NSC777638), bortezomib (NSC756655), olaparib (NSC753686), talazoparib (NSC767125), alisertib (NSC759677), peposertib (NSC802822), gemcitabine (NSC613327), 5-fluorouracil (NSC19893), SN-38 (NSC673596), oxaliplatin (NSC266046), paclitaxel (NSC125973), and doxorubicin (NSC123127), were obtained from the National Cancer Institute (NCI) Developmental Therapeutics Program Chemical Repository. The FDA-approved anticancer drug set is available from the Developmental Therapeutics Program at https://dtp.cancer.gov/organization/dscb/obtaining/available plates.htm. […] The stock solutions were prepared in dimethyl sulfoxide (DMSO, Sigma-Aldrich, St. Louis, MO, cat. D2650), except for the platinum complexes which were prepared in saline (Quality Biological, Gaithersburg, MD, cat. 114-055-101), at 800-fold the tested concentration and stored at -70 degrees C prior to their use. All drugs and investigational agents were tested over a range starting from a high concentration at or near the clinical Cmax and decreasing in half-log increments. If the clinical Cmax for an agent had not been determined, the highest concentration tested was 10 microM.
Cell Culture. All cells were maintained in an incubator at 37 degrees C and 5% CO2 with 95% humidity. The PDC lines were cultured according to standard operating procedures established by the NCI PDMR. Briefly, all PDCs were thawed and cultured in Matrigel-coated flasks prepared with a working solution of 1X Ham's F-12 nutrient mix, without supplementation (Invitrogen, Waltham, MA, cat. 11765054), 100 U/mL penicillin-streptomycin (Invitrogen, cat. 15140122), and 2.5% Matrigel (Corning Inc., Corning, NY, cat. 354248) for the first three passages. The 947758-054-R-J2-PDC line was cultured in 6B/Colon 1A media, which includes advanced DMEM/F-12 (Thermo Fisher Scientific, cat. 12634028), 10 mM HEPES (Thermo Fisher Scientific, cat. 15630080), 1X GlutaMAX supplement (Thermo Fisher Scientific, cat. 35050061), 0.1 mg/mL primocin (InvivoGen, cat. ant-pm-2), 10% defined fetal bovine serum, heat inactivated (HyClone Laboratories Inc., cat. SH30070.03HI), 1.25 mM N-Acetyl-L-cysteine (Sigma-Aldrich, cat. A9165), 10 mM nicotinamide (Sigma-Aldrich, cat. N0636), 1X B-27 supplement (Thermo Fisher Scientific, cat. 17504044), 1X N-2 supplement (Thermo Fisher Scientific, cat. 17502048), and 10 microM Y-27632 dihydrochloride (Tocris Bioscience, cat. 1254). The 876862-298-R-J1-PDC was cultured in 6E media, which includes all 6B/Colon 1A media components plus 50% L-WRN conditioned media (ATCC, cat. CRL-3276), 50 ng/mL recombinant human EGF recombinant protein (hEGF; Thermo Fisher Scientific, cat. PHG0311), 10 ng/mL recombinant human fibroblast growth factor 10 (hGFG-10; PeproTech, cat. 100-26), 1 ng/mL recombinant human fibroblast growth factor 2 (hFGF-2; PeproTech, cat. 100-18B), and 1 µM prostaglandin E2 (PGE2; Tocris, cat. 2296). The 227483-062-R1-J1-PDC line was cultured in Panc media, containing all 6E components except hFGF-2, with the addition of 500 nM SB-431542 (Selleckchem, cat. S1067) and 10 nM gastrin (Tocris, cat. 3006). […]

[1] = second compound 0.0316 µM, first compound 0.0316 µM
[2] = second compound 0.0316 µM, first compound 0.1 µM
[3] = second compound 0.0316 µM, first compound 0.316 µM
[4] = second compound 0.0316 µM, first compound 1 µM
[5] = second compound 0.1 µM, first compound 0.0316 µM
[6] = second compound 0.1 µM, first compound 0.1 µM
[7] = second compound 0.1 µM, first compound 0.316 µM
[8] = second compound 0.1 µM, first compound 1 µM
[9] = second compound 0.316 µM, first compound 0.0316 µM
[10] = second compound 0.316 µM, first compound 0.1 µM
[11] = second compound 0.316 µM, first compound 0.316 µM
[12] = second compound 0.316 µM, first compound 1 µM
[13] = second compound 1 µM, first compound 0.0316 µM
[14] = second compound 1 µM, first compound 0.1 µM
[15] = second compound 1 µM, first compound 0.316 µM
[16] = second compound 1 µM, first compound 1 µM
[17] = second compound 3.16 µM, first compound 0.0316 µM
[18] = second compound 3.16 µM, first compound 0.1 µM
[19] = second compound 3.16 µM, first compound 0.316 µM
[20] = second compound 3.16 µM, first compound 1 µM
[21] = second compound 10 µM, first compound 0.0316 µM
[22] = second compound 10 µM, first compound 0.1 µM
[23] = second compound 10 µM, first compound 0.316 µM
[24] = second compound 10 µM, first compound 1 µM
[25] = second compound 0.0316 µM, first compound 0.00316 µM
[26] = second compound 0.0316 µM, first compound 0.01 µM
[27] = second compound 0.1 µM, first compound 0.00316 µM
[28] = second compound 0.1 µM, first compound 0.01 µM
[29] = second compound 0.316 µM, first compound 0.00316 µM
[30] = second compound 0.316 µM, first compound 0.01 µM
[31] = second compound 1 µM, first compound 0.00316 µM
[32] = second compound 1 µM, first compound 0.01 µM
[33] = second compound 3.16 µM, first compound 0.00316 µM
[34] = second compound 3.16 µM, first compound 0.01 µM
[35] = second compound 10 µM, first compound 0.00316 µM
[36] = second compound 10 µM, first compound 0.01 µM
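Also: spheroids exposed to the compounds for 7 days.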

CC(Nc1ccc2c(c1)OCCn1cc(N3C(=O)OCC3C(F)F)nc1-2)C(N)=O (stereo unspecified) + CN1CCN(c2cc(C(=O)Nc3cc4cc(-c5cnn(C)c5)ccc4cn3)ccn2)CC1
IC50 (second compound 0.0316 µM): 89.4 nM | IC50 (second compound 0.1 µM): 75.5 nM | IC50 (second compound 0.316 µM): < 31.6 nM | IC50 (second compound 1 µM): < 31.6 nM | IC50 (second compound 3.16 µM): < 31.6 nM | IC50 (second compound 10 µM): < 31.6 nM | viability, T/C [1]: 69.5% | viability, T/C [2]: 46.7% | viability, T/C [3]: 33.7% | viability, T/C [4]: 22.6% | viability, T/C (second compound 0.0316 µM, first compound 3.16 µM): 13.8% | viability, T/C (second compound 0.0316 µM, first compound 10 µM): 12.3% | viability, T/C [5]: 78.7% | viability, T/C [6]: 36.1% | viability, T/C [7]: 30.2% | viability, T/C [8]: 20.7% | viability, T/C (second compound 0.1 µM, first compound 3.16 µM): 12.8% | viability, T/C (second compound 0.1 µM, first compound 10 µM): 12% | viability, T/C [9]: 19.3% | viability, T/C [10]: 15.2% | viability, T/C [11]: 17.8% | viability, T/C [12]: 8.67% | viability, T/C (second compound 0.316 µM, first compound 3.16 µM): 12.4% | viability, T/C (second compound 0.316 µM, first compound 10 µM): 8.37% | viability, T/C [13]: 0.31% | viability, T/C [14]: 1.8% | viability, T/C [15]: 1.32% | viability, T/C [16]: 0.15% | viability, T/C (second compound 1 µM, first compound 3.16 µM): 1.54% | viability, T/C (second compound 1 µM, first compound 10 µM): 0.14% | viability, T/C [17]: 0.28% | viability, T/C [18]: 3.06% | viability, T/C [19]: 0.36% | viability, T/C [20]: 0.11% | viability, T/C (second compound 3.16 µM, first compound 3.16 µM): 0.47% | viability, T/C (second compound 3.16 µM, first compound 10 µM): 0.23% | viability, T/C [21]: 0.13% | viability, T/C [22]: 0.11% | viability, T/C [23]: 1.27% | viability, T/C [24]: 0.14% | viability, T/C (second compound 10 µM, first compound 3.16 µM): 0.18% | viability, T/C (second compound 10 µM, first compound 10 µM): 0.2%

CCN1CCN(Cc2ccc(Nc3ncc(F)c(-c4cc(F)c5nc(C)n(C(C)C)c5c4)n3)nc2)CC1 + CN1CCN(c2cc(C(=O)Nc3cc4cc(-c5cnn(C)c5)ccc4cn3)ccn2)CC1
IC50 (second compound 0.0316 µM): > 1000 nM | IC50 (second compound 0.1 µM): > 1000 nM | IC50 (second compound 0.316 µM): < 3.16 nM | IC50 (second compound 1 µM): < 3.16 nM | IC50 (second compound 3.16 µM): < 3.16 nM | IC50 (second compound 10 µM): < 3.16 nM | viability, T/C [25]: 82.8% | viability, T/C [26]: 65% | viability, T/C [1]: 82.2% | viability, T/C [2]: 89% | viability, T/C [3]: 72% | viability, T/C [4]: 110% | viability, T/C [27]: 85.4% | viability, T/C [28]: 66.9% | viability, T/C [5]: 54.9% | viability, T/C [6]: 66.8% | viability, T/C [7]: 62.5% | viability, T/C [8]: 91% | viability, T/C [29]: 22.7% | viability, T/C [30]: 22.2% | viability, T/C [9]: 25.9% | viability, T/C [10]: 23.1% | viability, T/C [11]: 43.9% | viability, T/C [12]: 49.6% | viability, T/C [31]: 0.58% | viability, T/C [32]: 0.34% | viability, T/C [13]: 0.43% | viability, T/C [14]: 0.43% | viability, T/C [15]: 0.48% | viability, T/C [16]: 0.58% | viability, T/C [33]: 0.3% | viability, T/C [34]: 2.83% | viability, T/C [17]: 0.23% | viability, T/C [18]: 0.83% | viability, T/C [19]: 0.56% | viability, T/C [20]: 1% | viability, T/C [35]: 0.7% | viability, T/C [36]: 2.35% | viability, T/C [21]: 0.16% | viability, T/C [22]: 0.16% | viability, T/C [23]: 0.18% | viability, T/C [24]: 4.41%

COc1c(OCCCN2CCOCC2)ccc2c3n(c(=NC(=O)c4cnc(N)nc4)nc12)CCN3 + CN1CCN(c2cc(C(=O)Nc3cc4cc(-c5cnn(C)c5)ccc4cn3)ccn2)CC1
IC50 (second compound 0.0316 µM): 7.48 nM | IC50 (second compound 0.1 µM): 5.7 nM | IC50 (second compound 0.316 µM): < 3.16 nM | IC50 (second compound 1 µM): < 3.16 nM | IC50 (second compound 3.16 µM): < 3.16 nM | IC50 (second compound 10 µM): < 3.16 nM | viability, T/C [25]: 66.7% | viability, T/C [26]: 44.8% | viability, T/C [1]: 21.2% | viability, T/C [2]: 11.6% | viability, T/C [3]: 5.06% | viability, T/C [4]: 3.88% | viability, T/C [27]: 57.3% | viability, T/C [28]: 42.7% | viability, T/C [5]: 23.6% | viability, T/C [6]: 9.84% | viability, T/C [7]: 5.07% | viability, T/C [8]: 5.77% | viability, T/C [29]: 19.1% | viability, T/C [30]: 18.6% | viability, T/C [9]: 10.7% | viability, T/C [10]: 4.09% | viability, T/C [11]: 3.08% | viability, T/C [12]: 1.68% | viability, T/C [31]: 0.4% | viability, T/C [32]: 0.24% | viability, T/C [13]: 0.24% | viability, T/C [14]: 0.07% | viability, T/C [15]: 0.34% | viability, T/C [16]: 0.22% | viability, T/C [33]: 0.17% | viability, T/C [34]: 0.16% | viability, T/C [17]: 0.17% | viability, T/C [18]: 0.36% | viability, T/C [19]: 0.16% | viability, T/C [20]: 0.19% | viability, T/C [35]: 0.07% | viability, T/C [36]: 0.15% | viability, T/C [21]: 1.27% | viability, T/C [22]: 0.4% | viability, T/C [23]: 0.14% | viability, T/C [24]: 0.18%
